Source: EP4722207A1, “OXOISOINDOLINYL-SUBSTITUTED TETRAHYDROPYRIMIDINEDIONE DERIVATIVE AND USE THEREOF” (Gluetacs Therapeutics (Shanghai) Co., Ltd., priority 2023, dated 2024)

Key:
Type in all cases: cell-based
GSPT1 = biological target: T1, GSPT1 (Homo sapiens, UniProt P15170+Q96SW2); experiment: Western-blot assay, substrate protein degradation in hPBMCs: GSPT1; details: for substrate protein remaining % GSPT1: 24 hours of compound treatment, 50 nM and 500 nM; for GSPT1 substrate protein remaining %: compounds at 50 nM and 500 nM, 24 hours
T1 construct: effects of the compounds of the present disclosure on the expression of target proteins in cells; endogenous in cells; host or cells: human PBMCs (hPBMCs)
T1 sequence (P15170 whole entry): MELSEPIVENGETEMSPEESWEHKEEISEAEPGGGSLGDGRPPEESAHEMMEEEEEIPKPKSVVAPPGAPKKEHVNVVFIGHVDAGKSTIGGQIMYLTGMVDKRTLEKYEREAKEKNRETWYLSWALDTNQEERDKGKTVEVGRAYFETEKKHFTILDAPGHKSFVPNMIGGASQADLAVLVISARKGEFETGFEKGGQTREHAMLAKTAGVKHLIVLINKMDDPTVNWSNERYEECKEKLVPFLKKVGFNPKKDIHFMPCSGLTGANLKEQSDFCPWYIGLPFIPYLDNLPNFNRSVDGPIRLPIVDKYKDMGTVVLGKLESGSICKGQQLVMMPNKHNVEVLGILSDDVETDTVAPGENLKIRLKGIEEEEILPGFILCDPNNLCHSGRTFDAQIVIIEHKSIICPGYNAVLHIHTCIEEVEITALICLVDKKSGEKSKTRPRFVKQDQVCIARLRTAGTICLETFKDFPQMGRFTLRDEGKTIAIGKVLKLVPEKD
T1 sequence (Q96SW2 whole entry): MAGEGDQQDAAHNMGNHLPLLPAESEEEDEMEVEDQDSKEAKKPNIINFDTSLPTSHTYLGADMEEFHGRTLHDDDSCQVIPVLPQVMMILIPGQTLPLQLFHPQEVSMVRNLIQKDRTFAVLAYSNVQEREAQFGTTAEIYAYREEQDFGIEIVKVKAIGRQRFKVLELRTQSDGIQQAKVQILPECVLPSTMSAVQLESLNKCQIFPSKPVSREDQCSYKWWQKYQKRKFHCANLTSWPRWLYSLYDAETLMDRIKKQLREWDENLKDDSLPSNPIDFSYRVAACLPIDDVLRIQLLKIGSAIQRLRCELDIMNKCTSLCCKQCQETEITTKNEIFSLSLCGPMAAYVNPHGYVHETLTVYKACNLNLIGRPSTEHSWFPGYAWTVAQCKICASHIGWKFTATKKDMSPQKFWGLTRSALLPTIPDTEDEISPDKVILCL
T1 sequence (Q16531 whole entry partner): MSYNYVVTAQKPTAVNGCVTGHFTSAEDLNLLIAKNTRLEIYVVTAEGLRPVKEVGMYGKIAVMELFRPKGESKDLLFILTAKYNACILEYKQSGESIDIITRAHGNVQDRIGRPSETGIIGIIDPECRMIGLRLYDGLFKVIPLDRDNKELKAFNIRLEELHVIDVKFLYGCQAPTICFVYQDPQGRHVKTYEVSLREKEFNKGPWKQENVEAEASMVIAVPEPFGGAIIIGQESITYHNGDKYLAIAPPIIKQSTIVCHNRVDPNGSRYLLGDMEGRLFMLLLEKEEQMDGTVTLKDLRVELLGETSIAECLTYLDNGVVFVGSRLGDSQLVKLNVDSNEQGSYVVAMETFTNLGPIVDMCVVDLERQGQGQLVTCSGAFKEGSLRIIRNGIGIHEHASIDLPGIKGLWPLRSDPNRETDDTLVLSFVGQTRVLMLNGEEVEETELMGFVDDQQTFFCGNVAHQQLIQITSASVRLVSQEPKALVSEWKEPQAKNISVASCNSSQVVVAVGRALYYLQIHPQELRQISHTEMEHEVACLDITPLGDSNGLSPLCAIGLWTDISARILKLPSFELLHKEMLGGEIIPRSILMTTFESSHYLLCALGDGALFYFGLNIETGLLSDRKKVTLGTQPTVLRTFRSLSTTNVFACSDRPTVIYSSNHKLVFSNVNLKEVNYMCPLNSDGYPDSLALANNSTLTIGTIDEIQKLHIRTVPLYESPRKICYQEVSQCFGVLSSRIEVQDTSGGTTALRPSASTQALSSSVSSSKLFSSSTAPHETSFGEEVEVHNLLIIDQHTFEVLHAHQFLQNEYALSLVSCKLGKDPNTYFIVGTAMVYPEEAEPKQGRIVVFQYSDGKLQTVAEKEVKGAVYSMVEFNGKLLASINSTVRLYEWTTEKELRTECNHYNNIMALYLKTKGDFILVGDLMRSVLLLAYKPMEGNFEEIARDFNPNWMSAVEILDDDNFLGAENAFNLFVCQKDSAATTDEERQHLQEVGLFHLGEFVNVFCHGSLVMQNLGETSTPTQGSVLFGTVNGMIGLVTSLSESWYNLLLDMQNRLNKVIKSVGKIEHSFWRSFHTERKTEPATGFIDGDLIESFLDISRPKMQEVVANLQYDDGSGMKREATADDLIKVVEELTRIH

CK1α = biological target: T2, CK1α (Homo sapiens, UniProt P48729+Q96SW2); experiment: Western-blot assay, substrate protein degradation in hPBMCs: CK1α; details: for substrate protein remaining % CK1α: 24 hours of compound treatment, 50 nM and 500 nM; for CK1α substrate protein remaining %: compounds at 50 nM and 500 nM, 24 hours
T2 construct: effects of the compounds of the present disclosure on the expression of target proteins in cells; endogenous in cells; host or cells: human PBMCs (hPBMCs)
T2 sequence (P48729 whole entry): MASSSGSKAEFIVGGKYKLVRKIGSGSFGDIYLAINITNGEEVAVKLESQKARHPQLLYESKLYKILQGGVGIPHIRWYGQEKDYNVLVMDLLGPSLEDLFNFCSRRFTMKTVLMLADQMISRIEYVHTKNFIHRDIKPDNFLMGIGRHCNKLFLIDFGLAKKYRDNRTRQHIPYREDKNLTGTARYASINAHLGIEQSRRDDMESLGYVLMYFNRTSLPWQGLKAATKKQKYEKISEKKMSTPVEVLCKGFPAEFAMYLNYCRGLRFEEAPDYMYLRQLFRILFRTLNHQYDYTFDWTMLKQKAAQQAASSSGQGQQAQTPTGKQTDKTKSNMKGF
T2 sequence (Q96SW2 whole entry): as the sequence (Q96SW2 whole entry) above
T2 sequence (Q16531 whole entry partner): as the sequence (Q16531 whole entry partner) above

IKZF3 = biological target: T3, IKZF3 (Homo sapiens, UniProt Q96SW2+Q9UKT9); experiment: Western-blot assay, substrate protein degradation in hPBMCs: IKZF3; details: for substrate protein remaining % IKZF3: 24 hours of compound treatment, 50 nM and 500 nM; for IKZF3 substrate protein remaining %: compounds at 50 nM and 500 nM, 24 hours
T3 construct: effects of the compounds of the present disclosure on the expression of target proteins in cells; endogenous in cells; host or cells: human PBMCs (hPBMCs)
T3 sequence (Q9UKT9 whole entry): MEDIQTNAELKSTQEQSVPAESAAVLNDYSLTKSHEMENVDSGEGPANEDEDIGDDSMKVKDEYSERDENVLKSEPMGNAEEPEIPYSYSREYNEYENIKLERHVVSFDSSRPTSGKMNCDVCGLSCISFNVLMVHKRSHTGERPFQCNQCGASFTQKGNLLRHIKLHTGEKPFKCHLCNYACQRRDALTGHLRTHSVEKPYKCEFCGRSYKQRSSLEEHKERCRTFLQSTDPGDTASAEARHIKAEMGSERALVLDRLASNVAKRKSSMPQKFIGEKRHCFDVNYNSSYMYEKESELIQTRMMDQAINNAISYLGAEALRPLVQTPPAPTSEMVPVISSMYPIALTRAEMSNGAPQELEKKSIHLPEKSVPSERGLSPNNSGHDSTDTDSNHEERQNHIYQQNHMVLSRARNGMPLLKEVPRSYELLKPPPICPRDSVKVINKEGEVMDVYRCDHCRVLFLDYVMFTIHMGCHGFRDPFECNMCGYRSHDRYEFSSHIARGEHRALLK
T3 sequence (Q96SW2 whole entry): as the sequence (Q96SW2 whole entry) above
T3 sequence (Q16531 whole entry partner): as the sequence (Q16531 whole entry partner) above

IKZF1 = biological target: T4, IKZF1 (Homo sapiens, UniProt Q13422+Q96SW2); experiment: Western-blot assay, substrate protein degradation in hPBMCs: IKZF1; details: for substrate protein remaining % IKZF1: 24 hours of compound treatment, 50 nM and 500 nM; for IKZF1 substrate protein remaining %: compounds at 50 nM and 500 nM, 24 hours
T4 construct: effects of the compounds of the present disclosure on the expression of target proteins in cells; endogenous in cells; host or cells: human PBMCs (hPBMCs)
T4 sequence (Q13422 whole entry): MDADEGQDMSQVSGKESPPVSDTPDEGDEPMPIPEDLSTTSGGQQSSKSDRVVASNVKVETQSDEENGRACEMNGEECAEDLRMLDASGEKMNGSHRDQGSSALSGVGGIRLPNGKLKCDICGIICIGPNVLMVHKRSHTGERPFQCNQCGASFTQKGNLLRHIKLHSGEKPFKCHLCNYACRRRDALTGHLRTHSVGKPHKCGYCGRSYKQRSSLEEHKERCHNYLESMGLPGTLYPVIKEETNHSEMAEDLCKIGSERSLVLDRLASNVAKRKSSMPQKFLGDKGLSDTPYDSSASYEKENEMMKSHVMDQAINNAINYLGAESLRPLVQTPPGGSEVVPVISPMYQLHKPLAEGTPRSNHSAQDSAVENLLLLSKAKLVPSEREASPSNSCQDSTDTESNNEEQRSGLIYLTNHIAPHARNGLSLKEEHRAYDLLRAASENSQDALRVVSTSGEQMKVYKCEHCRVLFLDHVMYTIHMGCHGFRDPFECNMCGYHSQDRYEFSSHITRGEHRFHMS
T4 sequence (Q96SW2 whole entry): as the sequence (Q96SW2 whole entry) above
T4 sequence (Q16531 whole entry partner): as the sequence (Q16531 whole entry partner) above

IKZF2 = biological target: T5, IKZF2 (Homo sapiens, UniProt Q96SW2+Q9UKS7); experiment: Western-blot assay, substrate protein degradation in hPBMCs: IKZF2; details: for substrate protein remaining % IKZF2: 24 hours of compound treatment, 50 nM and 500 nM; for IKZF2 substrate protein remaining %: compounds at 50 nM and 500 nM, 24 hours
T5 construct: effects of the compounds of the present disclosure on the expression of target proteins in cells; endogenous in cells; host or cells: human PBMCs (hPBMCs)

WEE1 = biological target: T6, WEE1 (Homo sapiens, UniProt P30291+Q96SW2); experiment: Western-blot assay, substrate protein degradation in hPBMCs: WEE1; details: for substrate protein remaining % WEE1: 24 hours of compound treatment, 50 nM and 500 nM; for WEE1 substrate protein remaining %: compounds at 50 nM and 500 nM, 24 hours
T6 construct: effects of the compounds of the present disclosure on the expression of target proteins in cells; endogenous in cells; host or cells: human PBMCs (hPBMCs)
T6 sequence (P30291 whole entry): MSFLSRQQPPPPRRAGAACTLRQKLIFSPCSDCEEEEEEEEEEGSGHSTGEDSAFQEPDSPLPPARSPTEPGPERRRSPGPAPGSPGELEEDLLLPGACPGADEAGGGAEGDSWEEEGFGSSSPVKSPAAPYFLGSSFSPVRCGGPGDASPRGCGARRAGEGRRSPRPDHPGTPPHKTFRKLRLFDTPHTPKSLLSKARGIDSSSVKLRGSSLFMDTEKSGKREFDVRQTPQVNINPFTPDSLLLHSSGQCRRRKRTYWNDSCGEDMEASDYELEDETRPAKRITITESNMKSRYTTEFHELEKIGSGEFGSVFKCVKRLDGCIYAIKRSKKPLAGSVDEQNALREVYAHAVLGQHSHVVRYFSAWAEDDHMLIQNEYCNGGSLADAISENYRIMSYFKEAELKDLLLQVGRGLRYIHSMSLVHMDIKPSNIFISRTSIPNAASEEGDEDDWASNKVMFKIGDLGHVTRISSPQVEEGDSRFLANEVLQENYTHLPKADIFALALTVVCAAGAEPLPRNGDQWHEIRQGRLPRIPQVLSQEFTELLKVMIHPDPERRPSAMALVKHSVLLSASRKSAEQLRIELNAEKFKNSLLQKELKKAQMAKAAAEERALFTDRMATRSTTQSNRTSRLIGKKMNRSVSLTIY
T6 sequence (Q96SW2 whole entry): as the sequence (Q96SW2 whole entry) above
T6 sequence (Q16531 whole entry partner): as the sequence (Q16531 whole entry partner) above

Row | Structure (SMILES) | substrate protein remaining % GSPT1 (GSPT1) | GSPT1 substrate protein remaining % (GSPT1) | substrate protein remaining % CK1α (CK1α) | CK1α substrate protein remaining % (CK1α) | substrate protein remaining % IKZF3 (IKZF3) | IKZF3 substrate protein remaining % (IKZF3) | substrate protein remaining % IKZF1 (IKZF1) | IKZF1 substrate protein remaining % (IKZF1) | substrate protein remaining % IKZF2 (IKZF2) | IKZF2 substrate protein remaining % (IKZF2) | substrate protein remaining % WEE1 (WEE1) | WEE1 substrate protein remaining % (WEE1)
1 | O=C1CCN(N2Cc3cc(CN4CCN(c5cncc(Cl)c5Cl)CC4)ccc3C2=O)C(=O)N1 [GT-05436, 1-(5-((4-(4,5-dichloropyridin-3-yl)piperazin-1-yl)methyl)-1-oxoisoindolin-2-yl)dihydropyrimidine-2,4(1H,3H)-dione] | A (0% ≤ substrate protein remaining % ≤ 80%) | A ("A" is defined as 0% ≤ substrate protein remaining % ≤ 80%) | B (80%< substrate protein remaining %≤ 100%) | B ("B" is defined as 80%< substrate protein remaining %≤ 100%) | B (80%< substrate protein remaining %≤ 100%) | B ("B" is defined as 80%< substrate protein remaining %≤ 100%) | B (80%< substrate protein remaining %≤ 100%) | B ("B" is defined as 80%< substrate protein remaining %≤ 100%) | B (80%< substrate protein remaining %≤ 100%) | B ("B" is defined as 80%< substrate protein remaining %≤ 100%) | A (0% ≤ substrate protein remaining % ≤ 80%) | A ("A" is defined as 0% ≤ substrate protein remaining % ≤ 80%)
2 | O=C1CCN(N2Cc3cc(CN4CCN(c5ccncc5)CC4)ccc3C2=O)C(=O)N1 [GT-05437, 1-(1-oxo-5-((4-(pyridin-4-yl)piperazin-1-yl)methyl)isoindolin-2-yl)dihydropyrimidine-2,4(1H,3H)-dione] | A (0% ≤ substrate protein remaining % ≤ 80%) | – | B (80%< substrate protein remaining %≤ 100%) | – | B (80%< substrate protein remaining %≤ 100%) | – | B (80%< substrate protein remaining %≤ 100%) | – | B (80%< substrate protein remaining %≤ 100%) | – | B (80%< substrate protein remaining %≤ 100%) | –
3 | Cc1cc(N2CCN(Cc3ccc4c(c3)CN(N3CCC(=O)NC3=O)C4=O)CC2)ccn1 [GT-05438, 1-(5-((4-(2-methylpyridin-4-yl)piperazin-1-yl)methyl)-1-oxoisoindolin-2-yl)dihydropyrimidine-2,4(1H,3H)-dione] | A (0% ≤ substrate protein remaining % ≤ 80%) | – | A (0% ≤ substrate protein remaining % ≤ 80%) | – | A (0% ≤ substrate protein remaining % ≤ 80%) | – | A (0% ≤ substrate protein remaining % ≤ 80%) | – | B (80%< substrate protein remaining %≤ 100%) | – | A (0% ≤ substrate protein remaining % ≤ 80%) | –
4 | O=C1CCN(N2Cc3cc(CN4CCN(c5ccncc5Br)CC4)ccc3C2=O)C(=O)N1 [GT-05439, 1-(5-((4-(3-bromopyridin-4-yl)piperazin-1-yl)methyl)-1-oxoisoindolin-2-yl)dihydropyrimidine-2,4(1H,3H)-dione] | A (0% ≤ substrate protein remaining % ≤ 80%) | B ("B" is defined as 80%< substrate protein remaining %≤ 100%) | A (0% ≤ substrate protein remaining % ≤ 80%) | B ("B" is defined as 80%< substrate protein remaining %≤ 100%) | A (0% ≤ substrate protein remaining % ≤ 80%) | B ("B" is defined as 80%< substrate protein remaining %≤ 100%) | B (80%< substrate protein remaining %≤ 100%) | B ("B" is defined as 80%< substrate protein remaining %≤ 100%) | B (80%< substrate protein remaining %≤ 100%) | B ("B" is defined as 80%< substrate protein remaining %≤ 100%) | A (0% ≤ substrate protein remaining % ≤ 80%) | A ("A" is defined as 0% ≤ substrate protein remaining % ≤ 80%)
5 | O=C1CCN(N2Cc3cc(CN4CCN(c5ccncc5F)CC4)ccc3C2=O)C(=O)N1 [GT-05697, 1-(5-((4-(3-fluoropyridin-4-yl)piperazin-1-yl)methyl)-1-oxoisoindolin-2-yl)dihydropyrimidine-2,4(1H,3H)-dione] | – | A ("A" is defined as 0% ≤ substrate protein remaining % ≤ 80%) | – | B ("B" is defined as 80%< substrate protein remaining %≤ 100%) | – | B ("B" is defined as 80%< substrate protein remaining %≤ 100%) | – | B ("B" is defined as 80%< substrate protein remaining %≤ 100%) | – | B ("B" is defined as 80%< substrate protein remaining %≤ 100%) | – | A ("A" is defined as 0% ≤ substrate protein remaining % ≤ 80%)
6 | O=C1CCN(N2Cc3cc(CN4CCN(C(c5ccccc5)c5cccnc5)CC4)ccc3C2=O)C(=O)N1 (stereo not drawn) [GT-06376, 1-(1-oxo-5-((4-(phenyl(pyridin-3-yl)methyl)piperazin-1-yl)methyl)isoindolin-2-yl)dihydropyrimidine-2,4(1H,3H)-dione] | – | A ("A" is defined as 0% ≤ substrate protein remaining % ≤ 80%) | – | B ("B" is defined as 80%< substrate protein remaining %≤ 100%) | – | B ("B" is defined as 80%< substrate protein remaining %≤ 100%) | – | B ("B" is defined as 80%< substrate protein remaining %≤ 100%) | – | A ("A" is defined as 0% ≤ substrate protein remaining % ≤ 80%) | – | A ("A" is defined as 0% ≤ substrate protein remaining % ≤ 80%)
7 | O=C1CCN(N2C(=O)c3ccc(CN4CCN(C(c5ccccc5)c5cccnc5)CC4)cc3C2=O)C(=O)N1 (stereo not drawn) [GT-06377, 2-(2,4-dioxotetrahydropyrimidin-1(2H)-yl)-5-((4-(phenyl(pyridin-3-yl)methyl)piperazin-1-yl)methyl)isoindoline-1,3-dione] | – | B ("B" is defined as 80%< substrate protein remaining %≤ 100%) | – | B ("B" is defined as 80%< substrate protein remaining %≤ 100%) | – | B ("B" is defined as 80%< substrate protein remaining %≤ 100%) | – | B ("B" is defined as 80%< substrate protein remaining %≤ 100%) | – | A ("A" is defined as 0% ≤ substrate protein remaining % ≤ 80%) | – | A ("A" is defined as 0% ≤ substrate protein remaining % ≤ 80%)
8 | O=C1CCN(N2C(=O)c3ccc(CN4CCN(C(c5ccccc5)c5ccncc5)CC4)cc3C2=O)C(=O)N1 (stereo not drawn) [GT-06378, 2-(2,4-dioxotetrahydropyrimidin-1(2H)-yl)-5-((4-(phenyl(pyridin-4-yl)methyl)piperazin-1-yl)methyl)isoindoline-1,3-dione] | – | B ("B" is defined as 80%< substrate protein remaining %≤ 100%) | – | B ("B" is defined as 80%< substrate protein remaining %≤ 100%) | – | A ("A" is defined as 0% ≤ substrate protein remaining % ≤ 80%) | – | B ("B" is defined as 80%< substrate protein remaining %≤ 100%) | – | A ("A" is defined as 0% ≤ substrate protein remaining % ≤ 80%) | – | A ("A" is defined as 0% ≤ substrate protein remaining % ≤ 80%)
9 | O=C1CCN(N2C(=O)c3ccc(CN4CCN(C(c5ccccn5)c5ccccn5)CC4)cc3C2=O)C(=O)N1 [GT-06379, 5-((4-(di(pyridin-2-yl)methyl)piperazin-1-yl)methyl)-2-(2,4-dioxotetrahydropyrimidin-1(2H)-yl)isoindoline-1,3-dione] | – | A ("A" is defined as 0% ≤ substrate protein remaining % ≤ 80%) | – | B ("B" is defined as 80%< substrate protein remaining %≤ 100%) | – | A ("A" is defined as 0% ≤ substrate protein remaining % ≤ 80%) | – | B ("B" is defined as 80%< substrate protein remaining %≤ 100%) | – | A ("A" is defined as 0% ≤ substrate protein remaining % ≤ 80%) | – | A ("A" is defined as 0% ≤ substrate protein remaining % ≤ 80%)
